Experimental data from patent US20190336579A1, “COMPOSITIONS AND METHODS TO INDUCE TARGETED APOPTOSIS BY MODULATING PROTEIN TYROSINE PHOSPHATASE 13 (PTPN13)” (National Jewish Health, priority 2010, published 2019).

Assays:
[1] = Bleomycin murine model of fibrosis, mortality; format: in vivo, mice; settings: 2.5 U/kg bleomycin into the trachea
Method: To assess the effect of PTPN13 on development of fibrosis in vivo, we used a murine model of fibrosis in a PTPN13−/− mouse. The PTPN13−/− mouse has been characterized by Grusby to have abnormal STAT4 signaling which leads to augmented skewing toward TH1 or TH2 phenotypes. 2.5 U/kg bleomycin was administered directly into the tracheas of PTPN13−/− mice along with wildtype controls. […] Due to drastic weight decreases in the wildtype mice, two weeks was chosen as the end time point. […] Of the 20 wildtype mice treated with bleomycin, 11 (55%) died before two weeks as compared to the PTPN13−/− mice where three of the 20 (15%) died. Saline had no effect on mortality. Then static compliance was measured. […] Collagen content was measured in the lung using a hydroxyproline assay. […] To determine a possible cause for the decreased static compliance in the PTPN13−/− mice, we also measured other markers of lung disease, such as cellular infiltration and capillary leak. We measured the cellularity of the bronchoalveolar fluid (BALF). […] Capillary leak was determined by albumin present in the BALF (FIG. 6F). […] To validate these findings, stereology was performed on lung sections to quantify presence of collagen and diseased areas. […] Percentage of diseased lung was also measured by stereology. […]
FIG. 6: Deficiency of PTPN13−/− Leads to Decreased Bleomycin-induced Lung Fibrosis. […] Collagen content as measured by stereology. […]

[2] = system: PTPN13 protein; assay: PTPN13 protein expression by Western blot in lung fibroblasts; format: cell-based, human; settings: normal, fibrotic and MRC5 fibroblasts; TNF-α 10 ng/ml, IFN-γ 50 U/ml; 36 hours
Method: (§1) To assess the effects of these cytokines on PTPN13 expression, non-diseased normal human lung fibroblasts (NHLF), fibrotic human lung fibroblasts (FHLF) and a fetal lung fibroblast cell line, MRC5 cells, were treated with TNF-α (10/ng/ml), IFN-γ (50 U/ml) or with both cytokines for 6 hours. PTPN13 expression was measured by quantitative PCR (FIG. 2A). The primary lung fibroblasts from normal and fibrotic lung had equivalent levels of PTPN13 expression to the MRC5 lung fibroblast cell line. […] Treatment with TNF-α alone caused a 40% decrease in PTPN13 expression. Combined exposure to TNF-α and IFN-γ decreased PTPN13 mRNA expression by 80%. Protein lysates from normal, fibrotic and MRC5 fibroblasts treated for 36 hours with TNF-α (10/ng/ml), IFN-γ (50 U/ml) or with both cytokines were then analyzed for PTPN13 expression. […]
In one exemplary method, to assess whether PTPN13 expression prevents Fas-induced apoptosis, PTPN13 expression was knocked-down using siRNA. […] Apoptosis was assayed by quantifying activation of caspase-3 and caspase-8 (FIG. 3C).
FIG. 3: Decreased PTPN13 expression sensitizes fibroblasts to Fas-induced apoptosis. […] PTPN13 expression was quantified by western blot analysis and densitometry was performed. […] Fas activating antibody (250 ng/ml) (Fas activating antibody) or PBS (unstimulated) was added for 2 hours before analyzing Caspase-8 activation by a fluorescence-based assay. […]

[3] = system: PTPN13 mRNA; assay: PTPN13 mRNA expression by quantitative PCR in lung fibroblasts; format: cell-based, human; settings: NHLF, FHLF and MRC5 cells; TNF-α 10 ng/ml, IFN-γ 50 U/ml; 6 hours; compared to untreated cells
Method: as §1
FIG. 2: TNF-α and IFN-γ decrease PTPN13 expression. […] Top panel is a quantitative RT-PCR analysis of PTPN13 mRNA lower panel is a Western blot analysis for PTPN13 protein. […] Caspase-8 was measured using a fluorescence based assay.
Total RNA was obtained from 1×10^6 MRC5 cells using the Qiagen RNA Miniprep Kit (Qiagen) following the manufacturer's instructions. […] The fluorescence values of the threshold cycles were collected and normalized to GAPDH. Data are expressed as the relative change in mRNA expression compared to the untreated control.

Substance | mortality before two weeks ([1]; PTPN13−/− mice, three of 20 died) [%] | mortality before two weeks ([1]; wildtype mice, 11 of 20 died) [%] | PTPN13 protein expression (Western blot) [2] | decrease in PTPN13 mRNA expression [3]
bleomycin | 15 | 55 |  | 
IFN-γ: Recombinant human IFN-γ purchased from R&D Systems |  |  | not decreased | minimal decrease
TNF-α |  |  | decreased | 40%
